Laboratory results from patent US6376426B1, “Herbicidal 3-(heterocycl-1-yl)-uracils” (BASF Aktiengesellschaft, priority 1999, dated 2002).

Key:
Assay type in all cases: in vivo
Zea mays [1] = test: Pre-emergence herbicidal test, ZEAMX; design: key to herbicidal effect (0-9 scale) ZEAMX / herbicidal rating ZEAMX: A rating 0 indicates growth as untreated control; a rating 9 indicates death; conditions: for herbicidal rating ZEAMX: PRE, 0-9 scale, 21 days after spraying
Echinochloa crus-galli [2] = test: Pre-emergence herbicidal test, ECHCG; design: key: A rating 0 indicates growth as untreated control; a rating 9 indicates death; conditions: 0-9 scale, 21 days after spraying
Alopecurus myosuroides [3] = test: Pre-emergence herbicidal test, ALOMY; design: key to herbicidal effect (0-9 scale) ALOMY / herbicidal rating ALOMY: A rating 0 indicates growth as untreated control; a rating 9 indicates death; conditions: PRE, 0-9 scale, 21 days after spraying
Galium aparine [4] = test: Pre-emergence herbicidal test, GALAP; design: key to herbicidal effect (0-9 scale) GALAP / herbicidal rating GALAP: A rating 0 indicates growth as untreated control; a rating 9 indicates death; conditions: for herbicidal rating GALAP: PRE, 0-9 scale, 21 days after spraying
Matricaria inodora [5] = test: Pre-emergence herbicidal test, MATIN; design: key to herbicidal effect (0-9 scale) MATIN / herbicidal rating MATIN: A rating 0 indicates growth as untreated control; a rating 9 indicates death; conditions: for herbicidal rating MATIN: PRE, 0-9 scale, 21 days after spraying
Zea mays [6] = test: Post-emergence herbicidal test, ZEAMX; design: key: A rating 0 indicates growth as untreated control; a rating 9 indicates death; conditions: 0-9 scale, 21 days after spraying
Procedure, shortened: (§1)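 Herbicidal effect is recorded on a linear 0-9 scale, where 0 means growth like untreated control and 9 means death, with one unit approximating 10% more effect.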

Glycine max = test: Post-emergence herbicidal test, GLXMA; design: key: A rating 0 indicates growth as untreated control; a rating 9 indicates death; conditions: 0-9 scale, 21 days after spraying
Method: (§2) To evaluate their herbicidal activity, compounds according to the invention are tested using a representative range of plants:
(§3) […] After spraying, the plants are placed on greenhouse benches and are cared for in the usual manner, commensurate with conventional greenhouse practices.
(§4) The herbicidal effects of the test compounds are assessed visually twenty-one days after spraying the foliage and the soil and are recorded on a 0-9 scale. A rating 0 indicates growth as untreated control, a rating 9 indicates death. An increase of 1 unit on the linear scale approximates to a 10% increase in the level of effect.

Echinochloa crus-galli [7] = test: Post-emergence herbicidal test, ECHCG; design: key: A rating 0 indicates growth as untreated control; a rating 9 indicates death; conditions: 0-9 scale, 21 days after spraying
Procedure, shortened: as §1

Alopecurus myosuroides [8] = test: Post-emergence herbicidal test, ALOMY; design: key: A rating 0 indicates growth as untreated control; a rating 9 indicates death; conditions: 0-9 scale, 21 days after spraying
Procedure, shortened: (§5)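 Dilute acetone solutions of test compound with water; spray foliage and soil post-emergence at rates equivalent to about 1000, 800, 400, 250 or 100 g/ha. Maintain plants on greenhouse benches.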

Ipomoea hederacea = test: Post-emergence herbicidal test, IPOHE; design: key to herbicidal effect (0-9 scale) IPOHE / herbicidal rating IPOHE: A rating 0 indicates growth as untreated control; a rating 9 indicates death; conditions: for herbicidal rating IPOHE: POST, 0-9 scale, 21 days after spraying
Procedure, shortened: as §5

Galium aparine [9] = test: Post-emergence herbicidal test, GALAP; design: key to herbicidal effect (0-9 scale) GALAP / herbicidal rating GALAP: A rating 0 indicates growth as untreated control; a rating 9 indicates death; conditions: for herbicidal rating GALAP: POST, 0-9 scale, 21 days after spraying
Procedure, shortened: as §1

Abutilon theophrasti = test: Post-emergence herbicidal test, ABUTH; design: key to herbicidal effect (0-9 scale) ABUTH / herbicidal rating ABUTH: A rating 0 indicates growth as untreated control; a rating 9 indicates death; conditions: for herbicidal rating ABUTH: POST, 0-9 scale, 21 days after spraying
Procedure, shortened: as §1

Stellaria media = test: Post-emergence herbicidal test, STEME; design: key to herbicidal effect (0-9 scale) STEME / herbicidal rating STEME: A rating 0 indicates growth as untreated control; a rating 9 indicates death; conditions: for herbicidal rating STEME: POST, 0-9 scale, 21 days after spraying
Procedure, shortened: as §1

Matricaria inodora [10] = test: Post-emergence herbicidal test, MATIN; design: key to herbicidal effect (0-9 scale) MATIN / herbicidal rating MATIN: A rating 0 indicates growth as untreated control; a rating 9 indicates death; conditions: for herbicidal rating MATIN: POST, 0-9 scale, 21 days after spraying
Procedure, shortened: as §1

[11] = tested on: representative range of plants; test: Pre-emergence herbicidal test, summary over the plants tested; conditions: 100 g/ha
Method: as §2
(§6) The pre-emergence tests involve spraying a liquid formulation of the compound onto the soil in which the seeds of the plant species mentioned above has recently been sown.
The soil used in the tests is a prepared horticultural loam. The formulations used in the tests are prepared from solutions of the test compounds in acetone containing 0.4% by weight of an alkylphenol/ethylene oxide condensate available under the trade mark TRITON X-155. […] In these tests untreated sown soil are used as controls.
as §4

[12] = tested on: representative range of plants; test: Post-emergence herbicidal test, summary over the plants tested; conditions: 100 g/ha
Method: as §2, §3, §4

[13] = tested on: representative range of plants; test: Herbicidal activity, pre- and post-emergence, overall; conditions: both in pre- and post-emergence
Method: as §2, §6
The soil used in the tests is a prepared horticultural loam. The formulations used in the tests are prepared from solutions of the test compounds in acetone containing 0.4% by weight of an alkylphenol/ethylene oxide condensate available under the trade mark TRITON X-155. These acetone solutions are diluted with water and the resulting formulations applied at dosage levels corresponding to 1000 g and 250 g/ha of active material per hectare in a volume equivalent to 900 litres per hectare. In these tests untreated sown soil are used as controls.
These acetone solutions are diluted with water and the resulting formulations applied at dosage levels equivalent to about 1000, 800, 400, 250 or 100 g/ha per hectare of test compound per pot. After spraying, the plants are placed on greenhouse benches and are cared for in the usual manner, commensurate with conventional greenhouse practices.
as §4

With `Cn1c(C(F)(F)F)cc(=O)n(-n2ccc3c(Cl)cccc32)c1=O` [Example 169, 3-(4-Chloro-indol-1-yl)-1-methyl-6-trifluoromethylpyrimidine-2,4-dione] as the molecule, how does the “herbicidal rating ZEAMX” value (Zea mays [1]; 12.5 g/ha) read?
The value was 0.

What about the “herbicidal rating ZEAMX” value (Zea mays [1]; 25 g/ha) of the same molecule?
The value was 1.

And the “herbicidal rating ZEAMX” value (Zea mays [1]; 100 g/ha)?
The value was 3.

What about the “herbicidal rating ZEAMX” value (Zea mays [1]; 400 g/ha) of the same molecule?
The value was 7.

And the “selectivity in maize” value (Zea mays [1]; pre-emergence, 25 g/ha)?
The value was “Surprisingly good selectivity”.

What about the “herbicidal rating ECHCG” value (Echinochloa crus-galli [2]; 12.5 g/ha) of the same molecule?
The value was 4.

What about the “herbicidal rating ECHCG” value (Echinochloa crus-galli [2]; 25 g/ha) of the same molecule?
The value was 7.

And the “herbicidal rating ECHCG” value (Echinochloa crus-galli [2]; 100 g/ha)?
The value was 9.

What about the “herbicidal rating ECHCG” value (Echinochloa crus-galli [2]; 400 g/ha) of the same molecule?
Its value is 9.

And the “herbicidal rating ALOMY” value (Alopecurus myosuroides [3]; 12.5 g/ha)?
The value was 2.

What about the “herbicidal rating ALOMY” value (Alopecurus myosuroides [3]; 25 g/ha) of the same molecule?
The value was 5.

And the “herbicidal rating ALOMY” value (Alopecurus myosuroides [3]; 100 g/ha)?
Its value is 7.

And the “herbicidal rating ALOMY” value (Alopecurus myosuroides [3]; 400 g/ha)?
Its value is 9.

What about the “herbicidal rating GALAP” value (Galium aparine [4]; 12.5 g/ha) of the same molecule?
Its value is 7.

And the “herbicidal rating GALAP” value (Galium aparine [4]; 25 g/ha)?
Its value is 8.

What about the “herbicidal rating GALAP” value (Galium aparine [4]; 100 g/ha) of the same molecule?
Its value is 9.

What about the “herbicidal rating GALAP” value (Galium aparine [4]; 400 g/ha) of the same molecule?
The value was 9.

What about the “control of Galium” value (Galium aparine [4]; pre-emergence, 25 g/ha) of the same molecule?
The value was “good control”.

And the “herbicidal rating MATIN” value (Matricaria inodora [5]; 12.5 g/ha)?
The value was 8.

What about the “herbicidal rating MATIN” value (Matricaria inodora [5]; 25 g/ha) of the same molecule?
Its value is 8.

And the “herbicidal rating MATIN” value (Matricaria inodora [5]; 100 g/ha)?
The value was 9.

And the “herbicidal rating MATIN” value (Matricaria inodora [5]; 400 g/ha)?
Its value is 9.

And the “control of Matricaria” value (Matricaria inodora [5]; pre-emergence, 25 g/ha)?
The value was “good control”.

What about the “herbicidal rating ZEAMX” value (Zea mays [6]; 25 g/ha) of the same molecule?
The value was 0.

And the “herbicidal rating ZEAMX” value (Zea mays [6]; 100 g/ha)?
Its value is 3.

What about the “herbicidal rating ZEAMX” value (Zea mays [6]; 400 g/ha) of the same molecule?
Its value is 5.

And the “herbicidal rating GLXMA” value (Glycine max; 25 g/ha)?
Its value is 5.

What about the “herbicidal rating GLXMA” value (Glycine max; 100 g/ha) of the same molecule?
The value was 7.

What about the “herbicidal rating GLXMA” value (Glycine max; 400 g/ha) of the same molecule?
The value was 9.

What about the “herbicidal rating ECHCG” value (Echinochloa crus-galli [7]; 25 g/ha) of the same molecule?
Its value is 5.

And the “herbicidal rating ECHCG” value (Echinochloa crus-galli [7]; 100 g/ha)?
The value was 9.

What about the “herbicidal rating ECHCG” value (Echinochloa crus-galli [7]; 400 g/ha) of the same molecule?
Its value is 9.

And the “herbicidal rating ALOMY” value (Alopecurus myosuroides [8]; 25 g/ha)?
Its value is 2.

And the “herbicidal rating ALOMY” value (Alopecurus myosuroides [8]; 100 g/ha)?
The value was 6.

And the “herbicidal rating ALOMY” value (Alopecurus myosuroides [8]; 400 g/ha)?
The value was 9.

And the “herbicidal rating IPOHE” value (Ipomoea hederacea; 25 g/ha)?
Its value is 9.

What about the “herbicidal rating IPOHE” value (Ipomoea hederacea; 100 g/ha) of the same molecule?
The value was 9.

And the “herbicidal rating IPOHE” value (Ipomoea hederacea; 400 g/ha)?
The value was 9.

And the “control of Ipomoea” value (Ipomoea hederacea; post-emergence, 12.5 g/ha)?
The value was “excellent control”.

And the “herbicidal rating GALAP” value (Galium aparine [9]; 25 g/ha)?
Its value is 9.

And the “herbicidal rating GALAP” value (Galium aparine [9]; 100 g/ha)?
Its value is 9.

And the “herbicidal rating GALAP” value (Galium aparine [9]; 400 g/ha)?
Its value is 9.

What about the “control of Galium” value (Galium aparine [9]; post-emergence, 12.5 g/ha) of the same molecule?
The value was “excellent control”.

And the “herbicidal rating ABUTH” value (Abutilon theophrasti; 25 g/ha)?
Its value is 9.

And the “herbicidal rating ABUTH” value (Abutilon theophrasti; 100 g/ha)?
The value was 9.

And the “herbicidal rating ABUTH” value (Abutilon theophrasti; 400 g/ha)?
The value was 9.

And the “control of Abutilon” value (Abutilon theophrasti; post-emergence, 12.5 g/ha)?
Its value is “excellent control”.

And the “herbicidal rating STEME” value (Stellaria media; 25 g/ha)?
The value was 8.

And the “herbicidal rating STEME” value (Stellaria media; 100 g/ha)?
The value was 9.

What about the “herbicidal rating STEME” value (Stellaria media; 400 g/ha) of the same molecule?
The value was 9.

And the “control of Stellaria” value (Stellaria media; post-emergence, 12.5 g/ha)?
The value was “excellent control”.

And the “herbicidal rating MATIN” value (Matricaria inodora [10]; 25 g/ha)?
The value was 8.

And the “herbicidal rating MATIN” value (Matricaria inodora [10]; 100 g/ha)?
The value was 9.

What about the “herbicidal rating MATIN” value (Matricaria inodora [10]; 400 g/ha) of the same molecule?
The value was 9.

And the “control of Matricaria” value (Matricaria inodora [10]; post-emergence, 12.5 g/ha)?
The value was “excellent control”.

What about the “control of the weeds” value [11] of the same molecule?
The value was “all of the weeds except Alopecurus were well controlled”.

What about the “control of the weeds” value [12] of the same molecule?
Its value is “good cross spectrum control on both broadleaf weeds and grasses”.

What about the “herbicidal performance” value [13] of the same molecule?
Its value is “excellent performance”.
